Columns and labels:
Experiment in all cases: relative viability (nuclei count vs DMSO), 5 days (fraction); higher = more cells survive
Veliparib + Vorinostat = compound: C[C@]1(c2nc3c(C(N)=O)cccc3[nH]2)CCCN1 [Veliparib] + O=C(CCCCCCC(=O)Nc1ccccc1)NO [Vorinostat] (partner 1 µM)
Outline: (§1)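 Relative viability divides the nuclei count in treated wells by that in vehicle wells. Lung cancer cell lines were seeded in 1536-well plates, dosed by pin tool the next day, and fixed and stained after 5 days in one step with final 0.05% Triton X-100, 1% formaldehyde and 1 ug/ml Hoechst. Dosing was a single drug or a fixed anchor-drug dose plus five library-drug doses (not always all listed) in √10 steps, and values are medians of duplicate plates imaged at 4×.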

Veliparib + Linsitinib = compound: C[C@]1(c2nc3c(C(N)=O)cccc3[nH]2)CCCN1 [Veliparib] + C[C@]1(O)C[C@@H](c2nc(-c3ccc4ccc(-c5ccccc5)nc4c3)c3c(N)nccn32)C1 [Linsitinib] (partner 1 µM)
Outline: as §1

Veliparib + Olaparib = compound: C[C@]1(c2nc3c(C(N)=O)cccc3[nH]2)CCCN1 [Veliparib] + O=C(c1cc(Cc2n[nH]c(=O)c3ccccc23)ccc1F)N1CCN(C(=O)C2CC2)CC1 [Olaparib] (partner 8 µM)
Outline: as §1

[1] = compound: COC1=CC=C(C=C1)CN2C=CC3=C2C=C(C=C3)C(=O)NO + CS(=O)(=O)N1CCN(Cc2cc3nc(-c4cccc5[nH]ncc45)nc(N4CCOCC4)c3s2)CC1 [Pictilisib] (partner 1 µM)
Outline: as §1

Cell Line: SW 1573
- relative viability (Veliparib + Vorinostat; first compound 0.06325 µM): 0.596
- relative viability (Veliparib + Vorinostat; first compound 0.2 µM): 0.67
- relative viability (Veliparib + Vorinostat; first compound 0.6325 µM): 0.495
- relative viability (Veliparib + Vorinostat; first compound 2 µM): 0.869
- relative viability (Veliparib + Linsitinib; first compound 0.02 µM): 0.977
- relative viability (Veliparib + Linsitinib; first compound 0.06325 µM): 0.845
- relative viability (Veliparib + Linsitinib; first compound 0.2 µM): 0.819
- relative viability (Veliparib + Linsitinib; first compound 0.6325 µM): 0.767
- relative viability (Veliparib + Linsitinib; first compound 2 µM): 0.79
- relative viability (Veliparib + Olaparib; first compound 0.02 µM): 0.57
- relative viability (Veliparib + Olaparib; first compound 0.06325 µM): 0.428
- relative viability (Veliparib + Olaparib; first compound 0.2 µM): 0.464
- relative viability (Veliparib + Olaparib; first compound 0.6325 µM): 0.42
- relative viability (Veliparib + Olaparib; first compound 2 µM): 0.442
- relative viability ([1]; first compound 0.253 µM): 0.478
- relative viability ([1]; first compound 0.8 µM): 0.554
- relative viability ([1]; first compound 2.53 µM): 0.532
- relative viability ([1]; first compound 8 µM): 0.486
